# According to ChEMBL document CHEMBL1134555 (J Med Chem, 2001):
# Target: Nitric oxide synthase 1 (Rattus norvegicus, UniProt P29476)
# Test: Inhibitory activity against recombinant rat nNOS.
# Nitric oxide synthase 1, sequence (P29476 whole entry): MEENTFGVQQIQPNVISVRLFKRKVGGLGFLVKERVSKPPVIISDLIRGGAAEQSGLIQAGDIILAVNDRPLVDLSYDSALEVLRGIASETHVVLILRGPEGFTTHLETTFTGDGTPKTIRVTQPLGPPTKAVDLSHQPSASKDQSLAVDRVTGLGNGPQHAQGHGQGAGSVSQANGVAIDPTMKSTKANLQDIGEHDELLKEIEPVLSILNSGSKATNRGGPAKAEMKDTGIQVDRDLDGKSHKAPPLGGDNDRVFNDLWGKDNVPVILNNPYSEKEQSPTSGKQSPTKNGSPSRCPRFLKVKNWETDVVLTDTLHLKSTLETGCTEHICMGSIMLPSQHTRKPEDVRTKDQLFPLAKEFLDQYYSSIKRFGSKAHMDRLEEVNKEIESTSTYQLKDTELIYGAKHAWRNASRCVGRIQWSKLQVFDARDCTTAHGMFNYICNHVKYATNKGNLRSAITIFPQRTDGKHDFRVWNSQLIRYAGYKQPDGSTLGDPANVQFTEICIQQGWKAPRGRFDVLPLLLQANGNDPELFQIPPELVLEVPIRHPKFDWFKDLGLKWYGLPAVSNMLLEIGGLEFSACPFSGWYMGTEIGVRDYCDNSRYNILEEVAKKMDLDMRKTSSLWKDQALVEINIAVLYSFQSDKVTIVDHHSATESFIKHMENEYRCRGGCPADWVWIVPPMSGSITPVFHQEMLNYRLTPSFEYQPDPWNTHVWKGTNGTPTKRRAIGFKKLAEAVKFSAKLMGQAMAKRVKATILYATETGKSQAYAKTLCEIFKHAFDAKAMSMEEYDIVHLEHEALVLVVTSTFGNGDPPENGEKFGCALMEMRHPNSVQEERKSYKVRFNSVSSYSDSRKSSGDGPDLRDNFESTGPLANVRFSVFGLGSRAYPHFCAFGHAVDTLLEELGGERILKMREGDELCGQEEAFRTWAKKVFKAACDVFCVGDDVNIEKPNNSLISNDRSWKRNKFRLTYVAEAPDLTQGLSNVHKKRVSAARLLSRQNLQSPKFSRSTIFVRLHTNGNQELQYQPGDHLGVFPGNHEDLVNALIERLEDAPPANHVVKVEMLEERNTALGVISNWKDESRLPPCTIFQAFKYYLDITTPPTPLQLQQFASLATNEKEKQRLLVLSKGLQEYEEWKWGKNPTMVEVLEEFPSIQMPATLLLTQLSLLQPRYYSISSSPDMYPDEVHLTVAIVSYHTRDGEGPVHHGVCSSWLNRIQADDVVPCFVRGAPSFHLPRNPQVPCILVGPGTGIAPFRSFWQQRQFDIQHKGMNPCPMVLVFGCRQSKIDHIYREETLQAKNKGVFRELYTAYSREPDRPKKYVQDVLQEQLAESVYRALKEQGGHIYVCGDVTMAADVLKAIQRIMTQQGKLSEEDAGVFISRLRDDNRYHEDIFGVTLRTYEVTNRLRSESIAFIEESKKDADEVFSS
row,SMILES,Ki [nM]
1,N=C(NCCC[C@H](N)C(=O)NCCN)N[N+](=O)[O-],540
2,N=C(NCCC[C@H](N)C(=O)NCCCCN)N[N+](=O)[O-],350
3,N=C(NCCC[C@H](N)C(=O)NCCCN)N[N+](=O)[O-],460
